Laboratory results from PubChem BioAssay AID463204 (Broad Institute, 2010).
Activity calls are given as the source filed them.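 How the source made its calls: active means AC50 no more than ten times the top concentration tested, that is within one log above it; inconclusive means flat curve fit with activity between 30% and 70%, or invalid poor fit; inactive means AC50 beyond ten times the top tested dose.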

Tested on: S. cerevisiae Mot1-301 ts growth rescue, BacTiter-Glo ATP luminescence
Test: restored Mot1-301 yeast growth at 38.5C – whole organism, S. cerevisiae, Mot1-301 ts mutant, luminescence, dose retest, SUMOylation pathway inhibitor project, confirmation (AID 463204);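 further: growth at restrictive 38.5 degrees C of Mot1-301 OY566 strain; actives raise luminescence by restoring growth of the ts mutant at high temperature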

Structure (SMILES)	AC50
COC(=O)CNC(=O)CSc1ccccn1	> 42 µM (inactive)
COc1cc(/C=C(\NC(=O)c2ccccc2)C(=O)Nc2nccs2)ccc1OC(C)=O	> 42 µM (inactive)
Cc1cc(C)cc(N2C(=O)CC(Sc3ncn[nH]3)C2=O)c1 (configuration not stated)	1.92 µM
COc1ccc(NC(=O)c2ccc(-n3cncn3)c([N+](=O)[O-])c2)cc1	> 21 µM (inactive)
Fc1ccc2nc(C3CCN(Cc4nc(CC5CC5)no4)CC3)[nH]c2c1	> 42 µM (inactive)
Cc1ccc(SC[C@H](C)CN2CC[C@H](C)CCC2=O)cc1	> 42 µM (inactive)
CC(C)C(CC(=O)NCc1ccco1)c1ccco1 (configuration not stated)	> 42 µM (inactive)
COC(=O)C1=C(C)N(Cc2ccccc2)C(=S)N[C@H]1c1cccc(F)c1	> 42 µM (inactive)
COc1ccc(-c2cc(C(=O)Nc3cc(C)ccc3O)no2)cc1	> 42 µM (inactive)
O=C(CN1c2ccccc2Sc2ccccc21)N/N=C/c1ccc(Cl)cc1Cl	> 21 µM (inactive)
Oc1c(Cl)cc(Cl)c(Cl)c1Cc1c(O)c(Cl)cc(Cl)c1Cl	0.84 µM
COc1ccccc1N1CCN(C(=O)C(=O)N/N=C/c2ccccc2F)CC1	> 42 µM (inactive)
COc1cc(C(=O)Oc2cccnc2)cc(OC)c1OC	> 42 µM (inactive)
COC(=O)[C@@H]1C[C@@H]2CC[C@@H](O)C[C@@H]2N1Cc1ccc(N2CCN(C)CC2)cc1	> 42 µM (inactive)
Fc1cccc(F)c1-c1nc(-c2ccncc2)no1	> 42 µM (inactive)
COc1ccc(C(=O)CC(=O)C(=O)Nc2ccc(C)c(C)c2)cc1	> 42 µM (inactive)
CN(C)S(=O)(=O)c1cccc(NC(=O)COc2nc3ccccc3nc2N2CCOCC2)c1	> 42 µM (inactive)
O=C(COC(=O)c1cc([N+](=O)[O-])ccc1N1CCOCC1)Nc1cccc(F)c1	> 42 µM (inactive)
CCCCC(O)(CCCC)C(=O)NN(C(=O)OC)c1ccc(C)cc1	> 42 µM (inactive)
O=C(COc1cnc2ccccc2n1)NCCC1=CCCCC1	> 42 µM (inactive)
Cc1[nH]n(-c2ccccc2)c(=O)c1C(C[N+](=O)[O-])c1ccc(Br)cc1 (configuration not stated)	> 42 µM (inactive)
O=C(NCc1ccccc1Cl)C(=O)NCC1CCCN1S(=O)(=O)c1cccs1 (configuration not stated)	> 42 µM (inactive)
O=C(Nc1cccc(N=Cc2cc(Br)cc(Br)c2O)c1)c1ccco1	2.81 µM
CN(NC(=O)c1ccccc1F)c1nc(C(F)(F)F)nc2ccccc12	> 42 µM (inactive)
CCOP(=O)(OCC)C(NC(=O)c1cccc(C)c1)C(Cl)(Cl)Cl (configuration not stated)	> 42 µM (inactive)
O=C(CN1CCN(c2nc(-c3ccccc3)cs2)CC1)NNC(=O)c1ccc(Br)cc1	> 42 µM (inactive)

Structure (SMILES)	AC50
CCOc1ccc(CCN2CN(C3CCCCC3)CNC2=S)cc1OCC	> 42 µM (inactive)
CCn1c(SCC(=O)OC)nnc1-c1ccncc1	> 42 µM (inactive)
O=C(c1cc(-c2ccc(Cl)cc2)n(-c2ccc(Cl)cc2)n1)N1CCOCC1	> 42 µM (inactive)
O=C(Cc1cccs1)Nc1nnc(-c2ccncc2)s1	> 42 µM (inactive)
O=C(CSc1nc2ncccc2[nH]1)NC1CCCCC1	> 42 µM (inactive)
O=C1c2cc(N3CCCC3)c([N+](=O)[O-])cc2C(=O)N1c1ccccc1	> 42 µM (inactive)
O=C1CC(c2cccc(Br)c2)C2=C(COC2=O)N1 (configuration not stated)	> 42 µM (inactive)
O=S(=O)(c1ccccc1)N1CCN(c2nc3ccccc3s2)CC1	> 42 µM (inactive)
CC(C)(C)NC(=O)CC1C(=O)NCCN1Cc1c(F)cccc1Cl (configuration not stated)	> 42 µM (inactive)
Cc1cc(C)n2nc(SCC(=O)NC3CCCC(C)C3C)nc2n1 (configuration not stated)	> 42 µM (inactive)
O=C(N/N=C/c1ccc(Cl)s1)c1ccccc1[N+](=O)[O-]	> 42 µM (inactive)
Clc1ccc(CNCc2cccs2)cc1Cl	> 42 µM (inactive)
CCN(CC)S(=O)(=O)c1ccc(NC(=O)C(C)N(c2ccccc2)S(C)(=O)=O)cc1 (configuration not stated)	> 42 µM (inactive)
O=C(O)CCC(=O)Nc1cccc(C(=O)Nc2ccc(Br)cc2)c1	> 42 µM (inactive)
Cc1c(NC(=O)C(C)Sc2nnc(-c3ccccc3)o2)c(=O)n(-c2ccccc2)n1C (configuration not stated)	> 42 µM (inactive)
COc1ccc(CN2CCN(C(=O)c3cc(-c4cccnc4)nc4ccc(Cl)cc34)CC2)c(OC)c1OC	> 42 µM (inactive)
Cc1nn(C)c(Cl)c1CN1CCN(CCC(C)C)C(CCO)C1 (configuration not stated)	> 42 µM (inactive)
O=C1c2ccccc2C(=O)N1CCSc1ccccc1	> 42 µM (inactive)
COc1ccccc1C(=O)NC(=O)COC(=O)Cc1ccccc1[N+](=O)[O-]	> 42 µM (inactive)
O=C(Cc1ccc(F)cc1)Nc1nc(-c2ccc(F)cc2)cs1	> 42 µM (inactive)
COc1ccc(C)cc1NC(=S)N1CCN(c2ccccn2)CC1	> 42 µM (inactive)
Cc1ccc2c(C)c(C(=O)N(C)C(C)c3ccncn3)oc2c1C (configuration not stated)	> 42 µM (inactive)
O=C(NCCCN1CCN(c2ccccc2F)CC1)Nc1ccccc1[N+](=O)[O-]	> 42 µM (inactive)
CCOC(=O)c1sc2ncnc(N3CCN(c4ccc(OC)cc4)CC3)c2c1C	> 42 µM (inactive)
O=C(Cc1ccccc1)N1CCCC1c1ccccc1 (configuration not stated)	> 42 µM (inactive)
COc1cc(NC(=O)CCN2CCN(Cc3ccccc3)CC2)cc(OC)c1	> 42 µM (inactive)

Structure (SMILES)	AC50
O=C(NC(=S)Nc1ccccc1N1CCCC1)c1ccc([N+](=O)[O-])cc1	> 42 µM (inactive)
Cc1ccccc1C(=O)NNC(=S)Nc1cccc(C(F)(F)F)c1	> 42 µM (inactive)
Cc1ccccc1-c1nc(CN2CCCC(C(=O)NCc3cccnc3)C2)c(C)o1 (configuration not stated)	> 42 µM (inactive)
Cc1cc(C)cc(OC(=O)CS(=O)c2ccc(C(F)(F)F)cc2[N+](=O)[O-])c1 (configuration not stated)	3.48 µM
Cc1ccc(NC(=S)NC(NC(=O)c2ccccc2C)C(Cl)(Cl)Cl)c(C)c1 (configuration not stated)	> 42 µM (inactive)
COc1cccc(CN2CCN(C(=O)c3cccc4ccccc34)CC2)c1OC	> 42 µM (inactive)
CC(C)(C)C(=O)Nc1ccc(C(=O)NCc2cccnc2)cc1	> 42 µM (inactive)
CC1(C)NC(=O)N(CC(=O)O)C1=O	> 42 µM (inactive)
CN(CC(=O)Nc1sccc1C#N)Cc1ccccc1	> 42 µM (inactive)
CCCCOc1ccc(C(=O)Nc2ccc(N3CCN(C)CC3)cc2)cc1	> 42 µM (inactive)
Cc1cc(C)c(NC(=O)CCN2CCN(Cc3ccccc3)CC2)c(C)c1	> 42 µM (inactive)
Cc1ccc(SCC(=O)O/N=C(\N)c2cccc([N+](=O)[O-])c2)cc1	> 42 µM (inactive)
O=C(COc1ncnc2c(Cl)cc(Cl)cc12)NCCC1=CCCCC1	> 42 µM (inactive)
CCCCOCCCNS(=O)(=O)Cc1ccccc1	> 42 µM (inactive)
O=C(CSc1ncccn1)c1ccccc1Br	> 42 µM (inactive)
CC(C)C(=O)Nc1ccc(-c2nc3cccnc3o2)cc1	> 42 µM (inactive)
O=c1[nH]c(CN2CCN(CCO)CC2)nc2ccccc12	> 42 µM (inactive)
COc1cc(C(=O)Nc2ccc3c(c2)OCCO3)ccc1-n1cnnn1	> 42 µM (inactive)
c1ccc(CNc2ccc3ccccc3n2)nc1	> 42 µM (inactive)
CCOc1ccccc1CN1CCNC(=O)C1CC(=O)NCCN1CCOC1=O (configuration not stated)	> 42 µM (inactive)
Cc1cnc(=O)[nH]c1SCC(=O)c1ccc(F)cc1	> 42 µM (inactive)
Oc1c(Cl)cc(Cl)cc1/C=N/c1nc(-c2ccc(Cl)cc2)cs1	34.1 µM
Cc1ccccc1NC(=O)COC(=O)C1C2CC3OC(=O)C1C3C2 (configuration not stated)	> 42 µM (inactive)
C=CCSc1nnc2c(n1)[nH]c1c(C)cccc12	> 42 µM (inactive)
Cc1ccc(C(C[N+](=O)[O-])c2c(C)[nH]n(-c3ccccc3)c2=O)cc1 (configuration not stated)	6.06 µM
NNc1nc2sc3c(c2c(=O)n1-c1ccccc1)CCCC3	> 42 µM (inactive)

Structure (SMILES)	AC50
O=C(OCCCCOC(=O)c1ccccc1)c1ccccc1	> 42 µM (inactive)
CCN1CCCC(NC(=O)c2scc3c2CCCC3)C1 (configuration not stated)	> 42 µM (inactive)
CCOC(=O)NC1(Nc2ccc(C)cc2)Oc2ccccc2O1	> 42 µM (inactive)
Cc1ccc(C)c(NC(=O)COC(=O)c2ccc3c(c2)OCO3)c1	> 42 µM (inactive)
O=C(CCNC(=O)c1ccc(Br)cc1)NCc1ccccc1F	> 42 µM (inactive)
CCOc1ccc(/C=N/NS(=O)(=O)c2ccc(C)cc2)cc1OC	> 42 µM (inactive)
CCCCC(=O)NC(=S)Nc1cccc(C(=O)O)c1	> 42 µM (inactive)
O=S1(=O)C=C(Sc2nnc(-c3ccccc3)o2)c2ccccc21	1.47 µM
Cc1cccc2nc(COc3ccc4ccccc4c3Br)cn12	11.9 µM
Cc1ccc(C(=O)/C=C/Nc2ccccc2C(N)=O)cc1	> 42 µM (inactive)
CCCSc1nnc(NC(=O)CSc2sc3c(O)cc(=O)[nH]c3c2C#N)s1	> 42 µM (inactive)
COC(=O)[C@@]12CCCCN1[C@H](c1ccc(-c3cccc(Cl)c3)c(OC)c1)[C@H]1C(=O)N(C)C(=O)[C@H]12	> 42 µM (inactive)
Cc1ccc(NC(=O)C(CC(C)C)NC(=O)C2CCC(C)CC2)nc1 (configuration not stated)	> 42 µM (inactive)
CN(C)S(=O)(=O)c1cc(NC(=O)CSc2nn(-c3ccc(Cl)cc3)c(=S)s2)ccc1Cl	31.1 µM
Cc1nc2ccc(NC(=O)c3ccc(S(=O)(=O)N4CCOCC4)cc3)cc2s1	> 42 µM (inactive)
COc1ccc(C(=O)CSc2nnc(CNC(=O)c3ccccc3)n2C)cc1	> 42 µM (inactive)
N#C/C(=C\c1cn(-c2ccccc2)nc1-c1cccnc1)c1nnc2n1CCCCC2	> 42 µM (inactive)
CCOC(=O)c1cnc2c(OC)cccc2c1N1CCN(c2ccccc2OC)CC1	> 42 µM (inactive)
Cc1cc(C)c(OCC(=O)N/N=C/c2ccco2)c(C)c1	> 42 µM (inactive)
O=C(COc1ccccc1Cl)c1ccc[nH]1	> 42 µM (inactive)
CC(C)c1ccc2c(c1)CCC1C(C)(CN)CCCC21C (configuration not stated)	14.3 µM
COC/C=C/C1=CC2=CC(=O)C(C)(OC(=O)c3cnc4ccccc4n3)C(=O)C2=CN1CCOC (configuration not stated)	> 42 µM (inactive)
CCOc1ccc(N2CC(C(=O)OC)CC2=O)cc1 (configuration not stated)	> 42 µM (inactive)
O=C(O)c1ccc(/C=N/NC(=O)c2cc(-c3ccc4c5c(cccc35)CC4)n[nH]2)cc1	> 42 µM (inactive)
